In patent publication US20120064175A1, “HSP90 Inhibitors for Treating Non-Small Cell Lung Cancer in Wild-Type EGFR and/or KRAS Patients” (Synta Pharmaceuticals Corp., priority 2010, published 2012):

Key:
Kasumi-1 cells = conditions: acute myeloid leukemia cell line that harbors a mutation in c-Kit; cited from earlier work
[1] = system: leukemia cells that express either wild type FLT3 or FLT3-ITD mutations; conditions: Yao, et al. 2003; cited from earlier work
FLT3 with Hsp90 = conditions: cited from earlier work
[2] = system: RERF-LC-AI human squamous non-small cell lung cancer cell line; assay: Nude mouse xenograft model with RERF-LC-AI human tumor cells; format: in vivo; conditions: RERF-LC-AI^IVP tumors, i.p., 5 days per week, 15 doses; heading only, no data given
Description: The human squamous non-small cell lung cancer cell line, RERF-LC-AI (RCB0444; S. Kyoizumi, et al., Cancer. Res. 45:3274-3281, 1985), was obtained from the Riken Cell Bank (Tsukuba, Ibaraki, Japan). The cell line was cultured in growth media prepared from 50% Dulbecco's Modified Eagle Medium (high glucose), 50% RPMI Media 1640, 10% fetal bovine serum (FBS), 1% 100×L-glutamine, 1% 100× penicillin-streptomycin, 1% 100× sodium pyruvate and 1% 100×MEM non-essential amino acids. FBS was obtained from American Type Culture Collection (Manassas, Va., USA) and all other reagents were obtained from Invitrogen Corp. (Carlsbad, Calif., USA). […]
The growth media was replaced every 2-3 days until the flask became 90% confluent, typically in 5-7 days. […] The supernatant was aspirated and the cell pellet was resuspended in 10 ml of growth media and the cell number determined using a hemocytometer. […]
Seven to eight week old, female Crl:CD-1-nuBR (nude) mice were obtained from Charles River Laboratories (Wilmington, Mass., USA) Animals were housed 4-5/cage in micro-isolators, with a 12 hr/12 hr light/dark cycle, acclimated for at least 1 week prior to use and fed normal laboratory chow ad libitum. […] Tumor volumes (V) were calculated by caliper measurement of the width (W), length (L) and thickness (T) of tumors using the following formula: V=0.5236×(L×W×T). […]

Row | SMILES | Apoptosis (Kasumi-1 cells) | Growth of leukemia cells [1] | Effect on the association of FLT3 with Hsp90 (FLT3 with Hsp90) | Anti-tumor activity against human tumor cells in a nude mouse xenograft model [2]
1 | C=CCNC1=C2C[C@@H](C)C[C@H](OC)[C@H](O)[C@@H](C)/C=C(\C)[C@H](OC(N)=O)[C@@H](OC)/C=C\C=C(/C)C(=O)NC(=CC1=O)C2=O [Compound 17AAG, 17-allylamino-17-demethoxygeldanamycin] | induce apoptosis | inhibited | disrupt the association of FLT3 with Hsp90 | 
2 | CCc1cc(-c2nnc(S)n2-c2ccc(O)c3c2ccn3C(C)C)c(O)cc1O [Compound 48, 3-(2,4-DIHYDROXY-5-ETHYL- PHENYL)-4-(1-ISOPROPYL-7- HYDROXY-INDOL-4-YL)-5- MERCAPTO-[1,2,4] TRIAZOLE] |  |  |  | Displays Anti-tumor Activity
